Consider 4 molecules from ChEMBL document CHEMBL1201862, “PubChem BioAssay data set” (2004).

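Dose response: 5 concentrations. Exposure: 48 h. Format: 96-well plates. Endpoint: linear interpolation; highest concentration if not reached. GI50 marks 50% less growth.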 Calls of active or inactive are those of the source. No stated cut-off is given here; in the data, active = GI50 up to about 1.1 µM and inactive = higher. Bounds are passed on as bounds.

Among the test systems are SK-OV-3; CCRF-CEM; MOLT-4; RPMI-8226; SF-295; HCT-15; HCC 2998; UACC-62; PC-3; MCF7; Malme-3M; OVCAR-4; COLO 205; HT-29; T47D; KM12; SN12C; SF-539; DU-145.
Test in all cases: NCI-60 cell line screen, 48 h

For the molecule `OCCOCCN1CCN(c2nc(N3CCCC3)c3nc(Cl)c(NCc4ccccc4)nc3n2)CC1`, the GI50 is 17.2 µM (inactive) with SK-OV-3; 12.7 µM (inactive) in the test on CCRF-CEM; 10.7 µM (inactive) in the test with MOLT-4; 7.64 µM (inactive) with RPMI-8226; 14.5 µM (inactive) in the test with SF-295; 4.27 µM in the test on HCT-15. In addition, the GI50 is 4.29 µM (inactive) in the test on HCC 2998; 14 µM (inactive) in the test on UACC-62; 13.9 µM (inactive) in the test on PC-3; 13.9 µM (inactive) in the test on MCF7; 15.8 µM (inactive) with Malme-3M; 15 µM (inactive) with OVCAR-4. In addition, the GI50 is 7.35 µM (inactive) in the test with COLO 205; 3.92 µM (inactive) with HT-29; 13.2 µM (inactive) in the test with T47D; 10.1 µM (inactive) in the test on KM12; 15.6 µM (inactive) in the test on SN12C; 24.8 µM (inactive) with SF-539. Further, the GI50 in the test with DU-145 is 11.9 µM (inactive).

For `Cc1ccc(Nc2n[nH]c(NS(=O)(=O)c3cc(C)c(Cl)cc3S)n2)cc1`, the GI50 in the test on SK-OV-3 is > 100 µM (inactive); in the test with CCRF-CEM, > 100 µM (inactive); in the test on MOLT-4, > 100 µM (inactive); in the test on RPMI-8226, > 100 µM (inactive); in the test on SF-295, > 100 µM (inactive); with HCT-15 it was over 100 µM. The GI50 with HCC 2998, in the test on UACC-62, in the test on PC-3, with MCF7, with Malme-3M and in the test with OVCAR-4 was > 100 µM (inactive) each time. The GI50 with COLO 205, in the test on HT-29, in the test with T47D, in the test on KM12, in the test on SN12C and in the test with SF-539 was > 100 µM (inactive) each time. Moreover, the GI50 in the test on DU-145 is > 100 µM (inactive).

Take `CC(=O)NCCCCN(CCCNC(C)=O)C(=O)OCc1ccccc1`: the GI50 is > 100 µM (inactive) in the test with SK-OV-3; > 100 µM (inactive) in the test with CCRF-CEM; > 100 µM (inactive) with MOLT-4; > 100 µM (inactive) in the test on RPMI-8226; > 100 µM (inactive) in the test with SF-295; over 100 µM with HCT-15. Moreover, the GI50 with HCC 2998, in the test with UACC-62, in the test with PC-3, in the test on MCF7, with Malme-3M and with OVCAR-4 was > 100 µM (inactive) in each case. The GI50 in the test with COLO 205, in the test with HT-29, with T47D, with KM12, with SN12C and in the test on SF-539 was > 100 µM (inactive) throughout. Moreover, in the test on DU-145, the GI50 is > 100 µM (inactive).

For `CN(Cc1ccccc1)c1cc(=O)n(C)c(=O)[nH]1`, the GI50 in the test with SK-OV-3 was > 100 µM (inactive); with CCRF-CEM, 62.2 µM (inactive); in the test with MOLT-4, > 100 µM (inactive); with RPMI-8226, > 100 µM (inactive); in the test with SF-295, > 100 µM (inactive); in the test on HCT-15, over 100 µM. Besides, the GI50 in the test with HCC 2998, in the test on UACC-62, with PC-3, in the test with MCF7, in the test on Malme-3M and in the test on OVCAR-4 was > 100 µM (inactive) each time. For the same molecule, the GI50 in the test on COLO 205, in the test on HT-29, with T47D, in the test on SN12C, in the test with SF-539 and in the test on DU-145 was > 100 µM (inactive) in each case.
